In patent publication US20150141435A1, “2-PYRIDONE ANTIMICROBIAL COMPOSITIONS” (Emergent BioSolutions, priority 2010, published 2015):
Converted amounts (≈) assume the structure as drawn. Like-named read-outs stand apart in the source and are kept apart here.

Legend:
[1] = test system: Staphylococcus aureus (16 strains); test: MIC range, broader panel incl. clinical isolates (Table 3); assay type: cell-based; conditions: Staphylococcus aureus
[2] = test system: Enterococcus faecium (3 strains); test: as above; assay type: cell-based
E. faecium ATCC 19434 = test: MIC, CLSI broth microdilution (Table 1); assay type: cell-based; conditions: Enterococcus faecium, ATCC19434; Gram positive; MHB, 37° C., 16-20 hours; read-out: MIC E. faecium ATCC 19434
[3] = test system: S. aureus ATCC 43300 (MRSA, FQ-S); test: MIC, CLSI broth microdilution (Table 1); assay type: cell-based; conditions: Staphylococcus aureus; Gram positive; MHB, 37° C., 16-20 hours; read-out: MIC S. aureus ATCC 43300 (MRSA, FQ-S)
[4] = test system: Enterococcus faecalis (5 strains); test: MIC range, broader panel incl. clinical isolates (Table 3); assay type: cell-based
E. faecalis ATCC 29212 = test: MIC, CLSI broth microdilution (Table 1); assay type: cell-based; conditions: Enterococcus faecalis, ATCC29212; Gram positive; MHB, 37° C., 16-20 hours; read-out: MIC E. faecalis ATCC 29212
[5] = test system: S. maltophilia ATCC 17677; test: MIC, CLSI broth microdilution (Table 2); assay type: cell-based; conditions: Stenotrophomonas maltophilia, ATCC17677; Gram negative; MHB, 37° C., 16-20 hours; read-out: MIC S. maltophilia ATCC 17677
[6] = test system: Klebsiella pneumonia (4 strains); test: MIC range, broader panel incl. clinical isolates (Table 4); assay type: cell-based; conditions: Klebsiella pneumoniae
[7] = test system: Streptococcus pneumonia (5 strains); test: MIC range, broader panel incl. clinical isolates (Table 3); assay type: cell-based; conditions: Streptococcus pneumoniae
K. pneumoniae ATCC 33495 = test: MIC, CLSI broth microdilution (Table 2); assay type: cell-based; conditions: Klebsiella pneumoniae, ATCC33495; Gram negative; MHB, 37° C., 16-20 hours; read-out: MIC K. pneumoniae ATCC 33495
[8] = test system: S. aureus BAA-1720 (MRSA, FQ-R); test: MIC, CLSI broth microdilution (Table 1); assay type: cell-based; conditions: Staphylococcus aureus; Gram positive; MHB, 37° C., 16-20 hours; read-out: MIC S. aureus BAA-1720 (MRSA, FQ-R)
[9] = test system: Haemophilus influenza (5 strains); test: MIC range, broader panel incl. clinical isolates (Table 4); assay type: cell-based, Haemophilus influenzae
H. influenzae ATCC 49247 = test: MIC, CLSI broth microdilution (Table 2); assay type: cell-based; conditions: Haemophilus influenzae, ATCC49247; Gram negative; MHB, 37° C., 16-20 hours; read-out: MIC H. influenzae ATCC 49247
[10] = test system: Acinetobacter baumannii (12 strains); test: MIC range, broader panel incl. clinical isolates (Table 4); assay type: cell-based; conditions: Median of 12 strains
[11] = test system: Group C Streptococcus (4 strains); test: MIC range, broader panel incl. clinical isolates (Table 3); assay type: cell-based
[12] = test system: Pseudomonas aeruginosa (12 strains); test: MIC range, broader panel incl. clinical isolates (Table 4); assay type: cell-based
S. pneumonia ATCC 49619 = test: MIC, CLSI broth microdilution (Table 1); assay type: cell-based; conditions: Streptococcus pneumoniae, ATCC49619; Gram positive; MHB, 37° C., 16-20 hours; read-out: MIC S. pneumonia ATCC 49619
S. aureus ATCC 25923 = test: MIC, CLSI broth microdilution (Table 1); assay type: cell-based; conditions: Staphylococcus aureus, ATCC25923; Gram positive; MHB, 37° C., 16-20 hours; read-out: MIC S. aureus ATCC 25923
[13] = test system: Burkholderia cepacia (5 strains); test: MIC range, broader panel incl. clinical isolates (Table 4); assay type: cell-based; conditions: Burkholderia cepacia
[14] = test system: Escherichia coli (6 strains); test: as above; assay type: cell-based
[15] = test system: Streptococcus pyogenes (4 strains); test: MIC range, broader panel incl. clinical isolates (Table 3); assay type: cell-based
A. baumannii ATCC 19606 = test: MIC, CLSI broth microdilution (Table 2); assay type: cell-based; conditions: Acinetobacter baumannii, ATCC19606; Gram negative; MHB, 37° C., 16-20 hours; read-out: MIC A. baumannii B. ATCC 19606

## C[C@H]1COc2c(N3CCN(C)CC3)c(F)cc3c(=O)c(C(=O)O)cn1c23 [Levofloxacin]
[1]; High of 16 strains, read-out: MIC Range High, Staphylococcus aureus (16 strains)
  MIC: ≥ 16 µg/mL
[1]; Low of 16 strains, read-out: MIC Range Low, Staphylococcus aureus (16 strains)
  MIC: 0.12 µg/mL (≈ 0.332 µM)
[1]; Median of 16 strains
  MIC50: 0.25 µg/mL (≈ 0.692 µM)
[2]; High of 3 strains, read-out: MIC Range High, Enterococcus faecium (3 strains)
  MIC: ≥ 16 µg/mL
[2]; Low of 3 strains, read-out: MIC Range Low, Enterococcus faecium (3 strains)
  MIC: 2 µg/mL (≈ 5.53 µM)
[2]; Median of 3 strains
  MIC50: ≥ 16 µg/mL
E. faecium ATCC 19434
  MIC: 8 µg/mL (≈ 22.1 µM)
[3]
  MIC: 0.125 µg/mL (≈ 0.346 µM)
[4]; High of 5 strains, read-out: MIC Range High, Enterococcus faecalis (5 strains)
  MIC: ≥ 16 µg/mL
[4]; Low of 5 strains, read-out: MIC Range Low, Enterococcus faecalis (5 strains)
  MIC: 1 µg/mL (≈ 2.77 µM)
[4]; Median of 5 strains
  MIC50: 2 µg/mL (≈ 5.53 µM)
E. faecalis ATCC 29212
  MIC: 1 µg/mL (≈ 2.77 µM)
[5]
  MIC: 0.25 µg/mL (≈ 0.692 µM)
[6]; High of 4 strains, read-out: MIC Range High, Klebsiella pneumonia (4 strains)
  MIC: 2 µg/mL (≈ 5.53 µM)
[6]; Low of 4 strains, read-out: MIC Range Low, Klebsiella pneumonia (4 strains)
  MIC: 0.03 µg/mL (≈ 0.083 µM)
[6]; Median of 4 strains
  MIC50: 2 µg/mL (≈ 5.53 µM)
[7]; High of 5 strains, read-out: MIC Range High, Streptococcus pneumonia (5 strains)
  MIC: 2 µg/mL (≈ 5.53 µM)
[7]; Low of 5 strains, read-out: MIC Range Low, Streptococcus pneumonia (5 strains)
  MIC: 0.5 µg/mL (≈ 1.38 µM)
[7]; Median of 5 strains
  MIC50: 1 µg/mL (≈ 2.77 µM)
K. pneumoniae ATCC 33495
  MIC: 0.032 µg/mL (≈ 0.0886 µM)
[8]
  MIC: > 8 µg/mL
[9]; High of 5 strains, read-out: MIC Range High, Haemophilus influenza (5 strains)
  MIC: 0.015 µg/mL (≈ 0.0415 µM)
[9]; Low of 5 strains, read-out: MIC Range Low, Haemophilus influenza (5 strains)
  MIC: 0.008 µg/mL (≈ 0.0221 µM)
[9]; Median of 5 strains
  MIC50: 0.015 µg/mL (≈ 0.0415 µM)
H. influenzae ATCC 49247
  MIC: 0.016 µg/mL (≈ 0.0443 µM)
[10]
  MIC50: ≥ 16 µg/mL
[11]; High of 4 strains, read-out: MIC Range High, Group C Streptococcus (4 strains)
  MIC: 1 µg/mL (≈ 2.77 µM)
[11]; Low of 4 strains, read-out: MIC Range Low, Group C Streptococcus (4 strains)
  MIC: 0.5 µg/mL (≈ 1.38 µM)
[11]; Median of 4 strains
  MIC50: 0.75 µg/mL (≈ 2.08 µM)
[12]; High of 12 strains, read-out: MIC Range High, Pseudomonas aeruginosa (12 strains)
  MIC: ≥ 16 µg/mL
[12]; Low of 12 strains, read-out: MIC Range Low, Pseudomonas aeruginosa (12 strains)
  MIC: 1 µg/mL (≈ 2.77 µM)
[12]; Median of 12 strains
  MIC50: ≥ 16 µg/mL
S. pneumonia ATCC 49619
  MIC: 0.5 µg/mL (≈ 1.38 µM)
S. aureus ATCC 25923
  MIC: 0.25 µg/mL (≈ 0.692 µM)
[13]; High of 5 strains, read-out: MIC Range High, Burkholderia cepacia (5 strains)
  MIC: 2 µg/mL (≈ 5.53 µM)
[13]; Low of 5 strains, read-out: MIC Range Low, Burkholderia cepacia (5 strains)
  MIC: 1 µg/mL (≈ 2.77 µM)
[13]; Median of 5 strains
  MIC50: 2 µg/mL (≈ 5.53 µM)
[14]; High of 6 strains, read-out: MIC Range High, Escherichia coli (6 strains)
  MIC: ≥ 16 µg/mL
[14]; Low of 6 strains, read-out: MIC Range Low, Escherichia coli (6 strains)
  MIC: 0.015 µg/mL (≈ 0.0415 µM)
[14]; Median of 6 strains
  MIC50: ≥ 16 µg/mL
[15]; High of 4 strains, read-out: MIC Range High, Streptococcus pyogenes (4 strains)
  MIC: 2 µg/mL (≈ 5.53 µM)
[15]; Low of 4 strains, read-out: MIC Range Low, Streptococcus pyogenes (4 strains)
  MIC: 0.5 µg/mL (≈ 1.38 µM)
[15]; Median of 4 strains
  MIC50: 0.75 µg/mL (≈ 2.08 µM)
A. baumannii ATCC 19606
  MIC: 0.25 µg/mL (≈ 0.692 µM)
